Reference: ChEMBL document CHEMBL1201862, “PubChem BioAssay data set” (2004)
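Protocol summary: plate cells (96-well), add compound at 5 concentrations, incubate 48 h, interpolate endpoints linearly. The concentration for 50% growth inhibition is given as GI50.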 Activity calls are given as the source filed them. Rule as the data show it: active = GI50 up to about 1.1 µM and inactive = higher.

Assays:
Assay in all cases: NCI-60 cell line screen, 48 h
[1] = system: SK-OV-3
[2] = system: HCT-15
[3] = system: HL-60
[4] = system: UACC-257
[5] = system: MDA-MB-435
[6] = system: HOP-92
[7] = system: RXF 393
[8] = system: SK-MEL-28
[9] = system: CAKI-1
[10] = system: SR
[11] = system: PC-3
[12] = system: UACC-62
[13] = system: SF-268
[14] = system: LOX IMVI
[15] = system: HCT-116
[16] = system: OVCAR-5
[17] = system: A498
[18] = system: U-251
[19] = system: NCI-H522
[20] = system: Hs-578T

Structure (SMILES) | GI50 [1] | GI50 [2] [µM] | GI50 [3] | GI50 [4] | GI50 [5] | GI50 [6] | GI50 [7] | GI50 [8] | GI50 [9] | GI50 [10] | GI50 [11] | GI50 [12] | GI50 [13] | GI50 [14] | GI50 [15] | GI50 [16] | GI50 [17] | GI50 [18] | GI50 [19] | GI50 [20]
CCOC(=O)CSc1[nH]c2nc(C)nc(Cl)c2c1C#N | > 10 µM (inactive) | > 10 | > 10 µM (inactive) | > 10 µM (inactive) | > 10 µM (inactive) | > 10 µM (inactive) | > 10 µM (inactive) | > 10 µM (inactive) | > 10 µM (inactive) | > 10 µM (inactive) | > 10 µM (inactive) | > 10 µM (inactive) | > 10 µM (inactive) | > 10 µM (inactive) |  |  |  |  |  | 
O=[N+]([O-])c1ccc(Cl)c2c([N+](=O)[O-])cccc12 | 2.28 µM (inactive) | 2.77 | 2.48 µM (inactive) |  | 3.1 µM (inactive) | 3.96 µM (inactive) | > 10 µM (inactive) | 7.93 µM (inactive) |  | 3.95 µM (inactive) | 7.85 µM (inactive) | 5.46 µM (inactive) | 3.87 µM (inactive) | 3.71 µM (inactive) | 1.76 µM (inactive) |  |  |  |  | 
CN(C)C1(N(C)C)Oc2c(c(=O)n(C)c(=O)n2C)C(c2ccc(C(F)(F)F)cc2)C1(F)F (stereo not given) | > 100 µM (inactive) | > 100 |  | > 100 µM (inactive) | > 100 µM (inactive) | > 100 µM (inactive) | > 100 µM (inactive) | > 100 µM (inactive) | > 100 µM (inactive) |  | > 100 µM (inactive) | > 100 µM (inactive) | > 100 µM (inactive) | > 100 µM (inactive) | > 100 µM (inactive) | > 100 µM (inactive) | > 100 µM (inactive) | > 100 µM (inactive) |  | 
COC(=O)C(Cc1nc2ccccc2nc1O)C(=O)C(=O)Nc1ccc([N+](=O)[O-])cc1[N+](=O)[O-] (stereo not given) | 24.9 µM (inactive) | 17.3 | 21.8 µM (inactive) | 19.7 µM (inactive) |  |  | 18.3 µM (inactive) | 22.6 µM (inactive) | 32.4 µM (inactive) | 12 µM (inactive) |  | 18.7 µM (inactive) | 21.5 µM (inactive) | 20.9 µM (inactive) | 21.2 µM (inactive) | 27.2 µM (inactive) | 23 µM (inactive) | 17.1 µM (inactive) | 6.22 µM (inactive) | 
Cc1ccc2c(c1)NC(c1ccc(C(=O)O)cc1)c1cccn1-2 (stereo not given) | 22.4 µM (inactive) | > 100 |  | 80.4 µM (inactive) | 5.16 µM (inactive) |  | 19.7 µM (inactive) | > 100 µM (inactive) | 15.6 µM (inactive) | > 100 µM (inactive) | 32.7 µM (inactive) | 42.8 µM (inactive) |  | > 100 µM (inactive) | 47.9 µM (inactive) | > 100 µM (inactive) | 22.9 µM (inactive) | 30.9 µM (inactive) |  | 
Clc1ccccc1/C=C\C1(c2ccccc2)OCCO1 | 29.8 µM (inactive) | 12.6 | 24.8 µM (inactive) | 16.7 µM (inactive) | 15.6 µM (inactive) | 28.9 µM (inactive) | 19.1 µM (inactive) | 21.1 µM (inactive) | 17.3 µM (inactive) | 3.58 µM (inactive) |  | 15.7 µM (inactive) | 13.1 µM (inactive) | 5.36 µM (inactive) | 12.3 µM (inactive) | 20 µM (inactive) | 20.7 µM (inactive) | 12.2 µM (inactive) | 13.4 µM (inactive) | 13.8 µM (inactive)
COc1cc(/C=C2/SC(c3ccccc3)N(c3cc(Cl)ccc3Cl)C2=O)cc(OC)c1OC (stereo not given) | > 100 µM (inactive) | 50.6 | 51.9 µM (inactive) | > 100 µM (inactive) | 22.3 µM (inactive) | > 100 µM (inactive) | 45.8 µM (inactive) | 87.7 µM (inactive) | 23.2 µM (inactive) | 45.5 µM (inactive) | 65.5 µM (inactive) | 44.2 µM (inactive) |  | 67.6 µM (inactive) | 46.3 µM (inactive) | > 100 µM (inactive) | > 100 µM (inactive) | 63.4 µM (inactive) | 47.1 µM (inactive) | 
c1ccc(CN(Cc2ccccn2)Cn2cccn2)nc1 | 43 µM (inactive) | 28.7 | 22.9 µM (inactive) | 39 µM (inactive) |  | 52.6 µM (inactive) | 57.5 µM (inactive) | 15.7 µM (inactive) | > 100 µM (inactive) | 33.4 µM (inactive) |  | 20.3 µM (inactive) | 76.6 µM (inactive) | 67.6 µM (inactive) | 22.5 µM (inactive) |  | 38.2 µM (inactive) | 39.2 µM (inactive) | > 100 µM (inactive) | 
CCOC(=O)N1C/C(=C\c2ccc(N(C)C)cc2)C(=O)/C(=C/c2ccc(N(C)C)cc2)C1 | > 100 µM (inactive) | > 100 | > 100 µM (inactive) | > 100 µM (inactive) |  | > 100 µM (inactive) | > 100 µM (inactive) | > 100 µM (inactive) | > 100 µM (inactive) | > 100 µM (inactive) |  | > 100 µM (inactive) | > 100 µM (inactive) | > 100 µM (inactive) | > 100 µM (inactive) | > 100 µM (inactive) | > 100 µM (inactive) | > 100 µM (inactive) | > 100 µM (inactive) | 
O=C(CO)CC(=O)C(=O)Nc1nc([N+](=O)[O-])cs1 | > 100 µM (inactive) | > 100 | > 100 µM (inactive) | > 100 µM (inactive) |  | > 10 µM (inactive) | > 100 µM (inactive) | > 100 µM (inactive) | > 100 µM (inactive) | > 100 µM (inactive) |  | > 100 µM (inactive) | > 100 µM (inactive) | > 100 µM (inactive) | > 100 µM (inactive) | > 100 µM (inactive) | > 100 µM (inactive) | > 100 µM (inactive) | > 100 µM (inactive) | 
O=C(/C=C/c1ccccc1Cl)NC1C=Nc2ccc([N+](=O)[O-])cc2NC1 (stereo not given) | > 100 µM (inactive) | 35.9 | 49.2 µM (inactive) | 89.3 µM (inactive) |  |  | 97.7 µM (inactive) | > 100 µM (inactive) | 66.8 µM (inactive) | 14 µM (inactive) |  | > 100 µM (inactive) | > 100 µM (inactive) | 39.4 µM (inactive) | 59.6 µM (inactive) | > 100 µM (inactive) | > 100 µM (inactive) | 35.3 µM (inactive) | 22.6 µM (inactive) | 
CC1(CCCCO)C=CC(S(=O)(=O)c2ccccc2)CC1 (stereo not given) | 10.8 µM (inactive) | 3.69 |  | 4.41 µM (inactive) | 9.42 µM (inactive) | 2.84 µM (inactive) | 5.45 µM (inactive) | 14.9 µM (inactive) | 10.7 µM (inactive) | 2.33 µM (inactive) | 4.11 µM (inactive) | 6.15 µM (inactive) | 1.36 µM (inactive) | 1.78 µM (inactive) | 4.15 µM (inactive) | 4.85 µM (inactive) | 8.59 µM (inactive) | 6.95 µM (inactive) | 1.87 µM (inactive) | 
N#CC(C(=O)c1ccccc1F)c1nc2cc(C(F)(F)F)ccc2s1 (stereo not given) | 27 µM (inactive) | 20.1 |  | 27.4 µM (inactive) | 25.8 µM (inactive) | 19.1 µM (inactive) | 24 µM (inactive) | 29.4 µM (inactive) | 32.3 µM (inactive) |  |  |  | 30.3 µM (inactive) | 17.6 µM (inactive) | 19.2 µM (inactive) | 21.2 µM (inactive) | 14 µM (inactive) | 26.7 µM (inactive) | 17.3 µM (inactive) | 
